From patent US11078228B2, “Ectonucleotidase inhibitors and methods of use thereof” (Calithera Biosciences, Inc., priority 2018, dated 2021)

Biological target: recombinant CD73 (Homo sapiens (Human), UniProt P21589)
Experiment: Assay 2: Inhibition of the CD73 enzyme in vitro (0.05 nM CD73, 1 hour 37° C., Malachite Green)
Assay type: biochemical
Details: 0.05 nM CD73, 50 μM AMP, 1 hour at 37° C.
How it was run: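 Soluble recombinant CD73 reactions ran 1 hour at 37° C. Malachite Green was then added, and absorbance at 630 nm was read after 5 min at room temperature. Inorganic phosphate was quantified from a phosphate standard curve.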

recombinant CD73, sequence (P21589 27-547): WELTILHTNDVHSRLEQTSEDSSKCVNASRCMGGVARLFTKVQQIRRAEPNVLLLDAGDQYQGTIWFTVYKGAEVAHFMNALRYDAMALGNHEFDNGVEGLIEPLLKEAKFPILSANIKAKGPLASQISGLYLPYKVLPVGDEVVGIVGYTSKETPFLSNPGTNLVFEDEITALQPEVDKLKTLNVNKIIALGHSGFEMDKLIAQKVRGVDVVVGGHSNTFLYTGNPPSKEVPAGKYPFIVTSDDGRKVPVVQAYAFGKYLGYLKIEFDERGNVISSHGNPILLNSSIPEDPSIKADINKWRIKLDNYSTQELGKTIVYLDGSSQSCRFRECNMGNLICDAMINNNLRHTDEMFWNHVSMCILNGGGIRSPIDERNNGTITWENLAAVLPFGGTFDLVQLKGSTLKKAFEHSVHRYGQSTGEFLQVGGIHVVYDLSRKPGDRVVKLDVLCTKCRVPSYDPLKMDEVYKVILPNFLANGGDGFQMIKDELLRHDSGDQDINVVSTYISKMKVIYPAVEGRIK

Row | Compound | IC50
1 | C#C[C@@]1(O)[C@@H](COC(Cc2ccccc2)(C(=O)O)C(=O)O)O[C@@H](n2cnc3c(N4CCCCCC4)nc(Cl)nc32)[C@@H]1O [Example 80, 2-(((2R,3S,4R,5R)-5-(6-(azepan-1-yl)-2-chloro-9H-purin-9-yl)-3-ethynyl-3,4-dihydroxytetrahydrofuran-2-yl)methoxy)-2-benzylmalonic acid] | 2 nM
2 | C#C[C@@]1(O)[C@@H](COC(Cc2ccccc2)(C(=O)O)C(=O)O)O[C@@H](n2cnc3c(N(C)C4CCC4)nc(Cl)nc32)[C@@H]1O [Example 81, 2-benzyl-2-(((2R,3S,4R,5R)-5-(2-chloro-6-(cyclobutyl(methyl)amino)-9H-purin-9-yl)-3-ethynyl-3,4-dihydroxytetrahydrofuran-2-yl)methoxy)malonic acid] | 0.4 nM
3 | C#C[C@@]1(O)[C@@H](COC(Cc2ccccc2)(C(=O)O)C(=O)O)O[C@@H](n2cnc3c(N(C)C(C)C)nc(Cl)nc32)[C@@H]1O [Example 82, 2-benzyl-2-(((2R,3S,4R,5R)-5-(2-chloro-6-(isopropyl(methyl)amino)-9H-purin-9-yl)-3-ethynyl-3,4-dihydroxytetrahydrofuran-2-yl)methoxy)malonic acid] | 2 nM
4 | C#C[C@@]1(O)[C@@H](COC(Cc2ccccc2)(C(=O)O)C(=O)O)O[C@@H](n2cnc3c(NCc4cccnc4)nc(Cl)nc32)[C@@H]1O [Example 84, 2-benzyl-2-(((2R,3S,4R,5R)-5-(2-chloro-6-((pyridin-3-ylmethyl)amino)-9H-purin-9-yl)-3-ethynyl-3,4-dihydroxytetrahydrofuran-2-yl)methoxy)malonic acid] | 3 nM
5 | C#C[C@@]1(O)[C@@H](COC(Cc2ccccc2)(C(=O)O)C(=O)O)O[C@@H](n2cnc3c(NCc4cccc(F)c4)nc(Cl)nc32)[C@@H]1O [Example 85, 2-benzyl-2-(((2R,3S,4R,5R)-5-(2-chloro-6-((3-fluorobenzyl)amino)-9H-purin-9-yl)-3-ethynyl-3,4-dihydroxytetrahydrofuran-2-yl)methoxy)malonic acid] | 2 nM
6 | C#C[C@@]1(O)[C@@H](COC(Cc2ccccc2)(C(=O)O)C(=O)O)O[C@@H](n2cnc3c(NCc4cccc(Cl)c4)nc(Cl)nc32)[C@@H]1O [Example 86, 2-benzyl-2-(((2R,3S,4R,5R)-5-(2-chloro-6-((3-chlorobenzyl)amino)-9H-purin-9-yl)-3-ethynyl-3,4-dihydroxytetrahydrofuran-2-yl)methoxy)malonic acid] | 1 nM
7 | C#C[C@@]1(O)[C@@H](COC(Cc2ccccc2)(C(=O)O)C(=O)O)O[C@@H](n2cnc3c(NCc4ccc(Cl)cc4)nc(Cl)nc32)[C@@H]1O [Example 87, 2-benzyl-2-(((2R,3S,4R,5R)-5-(2-chloro-6-((4-chlorobenzyl)amino)-9H-purin-9-yl)-3-ethynyl-3,4-dihydroxytetrahydrofuran-2-yl)methoxy)malonic acid] | 0.6 nM
8 | C#C[C@@]1(O)[C@@H](COC(Cc2ccccc2)(C(=O)O)C(=O)O)O[C@@H](n2cnc3c(N4CCC4)nc(Cl)nc32)[C@@H]1O [Example 88, 2-(((2R,3S,4R,5R)-5-(6-(azetidin-1-yl)-2-chloro-9H-purin-9-yl)-3-ethynyl-3,4-dihydroxytetrahydrofuran-2-yl)methoxy)-2-benzylmalonic acid] | 1.2 nM
9 | C#C[C@@]1(O)[C@@H](COC(Cc2ccccc2)(C(=O)O)C(=O)O)O[C@@H](n2cnc3c(N(C)C)nc(Cl)nc32)[C@@H]1O [Example 89, 2-benzyl-2-(((2R,3S,4R,5R)-5-(2-chloro-6-(dimethylamino)-9H-purin-9-yl)-3-ethynyl-3,4-dihydroxytetrahydrofuran-2-yl)methoxy)malonic acid] | 1.1 nM
10 | C#C[C@@]1(O)[C@@H](COC(Cc2ccccc2)(C(=O)O)C(=O)O)O[C@@H](n2cnc3c(N(CC)CC)nc(Cl)nc32)[C@@H]1O [Example 96, 2-benzyl-2-(((2R,3S,4R,5R)-5-(2-chloro-6-(diethylamino)-9H-purin-9-yl)-3-ethynyl-3,4-dihydroxytetrahydrofuran-2-yl)methoxy)malonic acid] | 3 nM
11 | C#C[C@@]1(O)[C@@H](COC(Cc2ccccc2)(C(=O)O)C(=O)O)O[C@@H](n2cnc3c(N4CC[C@@H](O)C4)nc(Cl)nc32)[C@@H]1O [Example 100, 2-benzyl-2-(((2R,3S,4R,5R)-5-(2-chloro-6-((R)-3-hydroxypyrrolidin-1-yl)-9H-purin-9-yl)-3-ethynyl-3,4-dihydroxytetrahydrofuran-2-yl)methoxy)malonic acid] | 2 nM
12 | C#C[C@@]1(O)[C@@H](COC(Cc2ccccc2)(C(=O)O)C(=O)O)O[C@@H](n2cnc3c(N4CC[C@H](CO)C4)nc(Cl)nc32)[C@@H]1O [Example 101, 2-benzyl-2-(((2R,3S,4R,5R)-5-(2-chloro-6-((S)-3-(hydroxymethyl)-pyrrolidin-1-yl)-9H-purin-9-yl)-3-ethynyl-3,4-dihydroxytetrahydrofuran-2-yl)methoxy)malonic acid] | 1 nM

Further lines, results first:

Row | IC50 | Compound
13 | 1 nM | C#C[C@@]1(O)[C@@H](COC(Cc2ccccc2)(C(=O)O)C(=O)O)O[C@@H](n2cnc3c(NC4CC4)nc(Cl)nc32)[C@@H]1O [Example 83, 2-benzyl-2-(((2R,3S,4R,5R)-5-(2-chloro-6-(cyclopropylamino)-9H-purin-9-yl)-3-ethynyl-3,4-dihydroxytetrahydrofuran-2-yl)methoxy)malonic acid]
14 | 5 nM | C#C[C@@]1(O)[C@@H](COC(Cc2ccccc2)(C(=O)O)C(=O)O)O[C@@H](n2cnc3c(NCC(C)(C)O)nc(Cl)nc32)[C@@H]1O [Example 94, 2-benzyl-2-(((2R,3S,4R,5R)-5-(2-chloro-6-((2-hydroxy-2-methylpropyl)amino)-9H-purin-9-yl)-3-ethynyl-3,4-dihydroxytetrahydrofuran-2-yl)methoxy)malonic acid]
15 | 7 nM | C#C[C@@]1(O)[C@@H](COC(Cc2ccccc2)(C(=O)O)C(=O)O)O[C@@H](n2cnc3c(N[C@@H](C)CO)nc(Cl)nc32)[C@@H]1O [Example 95, 2-benzyl-2-(((2R,3S,4R,5R)-5-(2-chloro-6-(((S)-1-hydroxypropan-2-yl)amino)-9H-purin-9-yl)-3-ethynyl-3,4-dihydroxytetrahydrofuran-2-yl)methoxy)malonic acid]
16 | 2 nM | C#C[C@@]1(O)[C@@H](COC(Cc2ccccc2)(C(=O)O)C(=O)O)O[C@@H](n2cnc3c(NCCO)nc(Cl)nc32)[C@@H]1O [Example 97, 2-benzyl-2-(((2R,3S,4R,5R)-5-(2-chloro-6-((2-hydroxyethyl)amino)-9H-purin-9-yl)-3-ethynyl-3,4-dihydroxytetrahydrofuran-2-yl)methoxy)malonic acid]
17 | 2 nM | C#C[C@@]1(O)[C@@H](COC(Cc2ccccc2)(C(=O)O)C(=O)O)O[C@@H](n2cnc3c(N[C@H](C)CO)nc(Cl)nc32)[C@@H]1O [Example 98, 2-benzyl-2-(((2R,3S,4R,5R)-5-(2-chloro-6-(((R)-1-hydroxypropan-2-yl)amino)-9H-purin-9-yl)-3-ethynyl-3,4-dihydroxytetrahydrofuran-2-yl)methoxy)malonic acid]
18 | 6 nM | C#C[C@@]1(O)[C@@H](COC(Cc2ccccc2)(C(=O)O)C(=O)O)O[C@@H](n2cnc3c(N(CCO)C4CC4)nc(Cl)nc32)[C@@H]1O [Example 99, 2-benzyl-2-(((2R,3S,4R,5R)-5-(2-chloro-6-(cyclopropyl(2-hydroxyethyl)amino)-9H-purin-9-yl)-3-ethynyl-3,4-dihydroxytetrahydrofuran-2-yl)methoxy)malonic acid]
